From publication PMC7614775 (Nature chemical biology, 2022)
Entries after “also recorded” stand apart in the source; their conditions may differ.

Columns and labels:
JAK1_C817 [1] = biological target: T1, JAK1_C817 (Homo sapiens, UniProt P23458); experiment: Targeted MS-ABPP target engagement (TE50) in human cell lysates; assay type: binding
JAK1_C817 [2] = biological target: T1, JAK1_C817; experiment: Untargeted cysteine MS-ABPP, human PBMCs treated in situ; assay type: binding
SLC66A3_C135 = biological target: T2, SLC66A3_C135 (Homo sapiens, UniProt Q8N755); experiment: as above; assay type: binding
T2 sequence (Q8N755 20-202): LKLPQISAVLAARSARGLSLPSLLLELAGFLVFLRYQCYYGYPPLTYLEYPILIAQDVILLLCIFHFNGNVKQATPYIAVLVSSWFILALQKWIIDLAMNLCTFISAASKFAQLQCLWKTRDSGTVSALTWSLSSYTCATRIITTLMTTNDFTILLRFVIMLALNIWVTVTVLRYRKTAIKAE

TOR4A_C21 [3] = biological target: T3, TOR4A_C21 (Homo sapiens, UniProt Q9NXH8); experiment: as above; assay type: binding
TOR4A_C21 [4] = biological target: T3, TOR4A_C21; experiment: Untargeted cysteine MS-ABPP, human PBMC lysates treated in vitro; assay type: binding; details: PBMC lysate in vitro, 1 h
TYK2_C838 = TYK2_C838 (Homo sapiens, UniProt P29597); experiment: as above; assay type: binding; details: PBMC lysate in vitro, 1 h
C816 of mouse JAK1 = C816 of mouse JAK1 (Mus musculus, UniProt P52332); experiment: Cysteine MS-ABPP in mouse splenocyte lysates; assay type: binding; details: 0.01 µM, 1 h
[5] = test system: prolactin (PRL)-stimulated STAT5 (JAK2-dependent) phosphorylation; experiment: Phospho-STAT western blot in 22Rv1 cells expressing JAK1 variants; assay type: cell-based, human; details: 2 µM, 2 h
[6] = biological target: JAK1 phosphorylation (pJAK1; Y1034/Y1035) (Homo sapiens, UniProt P23458); experiment: JAK1 phosphorylation western blot in 22Rv1 cells expressing JAK1 variants; assay type: cell-based; details: WT- and C810A-JAK1
[7] = biological target: JAK1 phosphorylation (pJAK1; Y1034/Y1035) (Homo sapiens, UniProt P23458, C817A); experiment: as above; assay type: cell-based; details: C817A-JAK1; 2 µM, 2 h
[8] = test system: IFNα-stimulated STAT1 phosphorylation (TYK2-dependent); experiment: Phospho-STAT western blot in 22Rv1 cells expressing TYK2 variants; assay type: cell-based, human; details: WT-TYK2 expressing 22Rv1 cells; 2 h
[9] = biological target: TYK2 phosphorylation (pTYK2) (Homo sapiens, UniProt P29597); experiment: TYK2 phosphorylation western blot in 22Rv1 cells expressing TYK2 variants; assay type: cell-based; details: WT-TYK2
[10] = test system: IFNα-stimulated STAT1 phosphorylation; experiment: Phospho-STAT western blot in human PBMCs; assay type: cell-based; details: 0.1 µM
[11] = test system: IL-6-stimulated STAT3 phosphorylation; experiment: Phospho-STAT western blot in human PBMCs; assay type: cell-based; details: 0.1 µM
[12] = test system: IL-2-stimulated STAT5 phosphorylation; experiment: Phospho-STAT western blot in human PBMCs; assay type: cell-based; details: 0.1–1 µM
[13] = test system: GM-CSF stimulated STAT5 phosphorylation (JAK2-dependent); experiment: Phospho-STAT western blot in human PBMCs; assay type: cell-based; details: compound 2 h, GM-CSF 15 min
[14] = test system: IFNα-dependent STAT1 phosphorylation; experiment: Phospho-STAT western blot in mouse splenocytes; assay type: cell-based; details: 0.01–0.1 µM
[15] = test system: IL-2-dependent STAT5 phosphorylation; experiment: Phospho-STAT western blot in mouse splenocytes; assay type: cell-based; details: 0.01–0.1 µM
[16] = test system: IL-6-stimulated STAT3 phosphorylation; experiment: Phospho-STAT western blot in mouse splenocytes; assay type: cell-based
[17] = biological target: recombinant purified JAK1 (aa 438 – 1154) (Homo sapiens, UniProt P23458); experiment: In vitro kinase (peptide substrate, ADP-Glo) assay; assay type: biochemical
[18] = biological target: JAK1 trans-phosphorylation (Homo sapiens, UniProt P23458); experiment: Trans-phosphorylation assay in 22Rv1 cells; assay type: cell-based; details: cells expressing active WT-JAK1-FLAG; 2 µM, 2 h
[19] = test system: IFNγ-stimulated STAT1 phosphorylation; experiment: Phospho-STAT western blot in 22Rv1 cells expressing JAK1 variants; assay type: cell-based, human
[20] = test system: αCD3/αCD28-stimulated primary human T cells (CD25, CD69); experiment: T-cell activation analysis by flow cytometry; assay type: cell-based; details: 24 h
[21] = test system: αCD3/αCD28-stimulated primary human T cells (IFNγ, IL-2 secretion); experiment: Cytokine secretion of activated T cells (ELISA); assay type: cell-based; details: αCD3/αCD28 co-stimulation, 24 h
primary human T cells = experiment: T-cell viability (Near IR Live/Dead stain); assay type: cell-based; details: 24 h
[22] = test system: IFNα-stimulated human PBMCs; experiment: Real-Time PCR of interferon-stimulated genes; assay type: cell-based; details: compound 2 h, then IFNα 16 h
[23] = biological target: recombinant JAK1 (WT, C810A, C817A) (Homo sapiens, UniProt P23458); experiment: Gel-based ABPP in 22Rv1 cells; assay type: binding; details: pre-treatment 0.01–1 μM, 2 h, in situ
recombinant JAK1 (WT, C810A, C817A), sequence (P23458 whole entry C810A/C817A): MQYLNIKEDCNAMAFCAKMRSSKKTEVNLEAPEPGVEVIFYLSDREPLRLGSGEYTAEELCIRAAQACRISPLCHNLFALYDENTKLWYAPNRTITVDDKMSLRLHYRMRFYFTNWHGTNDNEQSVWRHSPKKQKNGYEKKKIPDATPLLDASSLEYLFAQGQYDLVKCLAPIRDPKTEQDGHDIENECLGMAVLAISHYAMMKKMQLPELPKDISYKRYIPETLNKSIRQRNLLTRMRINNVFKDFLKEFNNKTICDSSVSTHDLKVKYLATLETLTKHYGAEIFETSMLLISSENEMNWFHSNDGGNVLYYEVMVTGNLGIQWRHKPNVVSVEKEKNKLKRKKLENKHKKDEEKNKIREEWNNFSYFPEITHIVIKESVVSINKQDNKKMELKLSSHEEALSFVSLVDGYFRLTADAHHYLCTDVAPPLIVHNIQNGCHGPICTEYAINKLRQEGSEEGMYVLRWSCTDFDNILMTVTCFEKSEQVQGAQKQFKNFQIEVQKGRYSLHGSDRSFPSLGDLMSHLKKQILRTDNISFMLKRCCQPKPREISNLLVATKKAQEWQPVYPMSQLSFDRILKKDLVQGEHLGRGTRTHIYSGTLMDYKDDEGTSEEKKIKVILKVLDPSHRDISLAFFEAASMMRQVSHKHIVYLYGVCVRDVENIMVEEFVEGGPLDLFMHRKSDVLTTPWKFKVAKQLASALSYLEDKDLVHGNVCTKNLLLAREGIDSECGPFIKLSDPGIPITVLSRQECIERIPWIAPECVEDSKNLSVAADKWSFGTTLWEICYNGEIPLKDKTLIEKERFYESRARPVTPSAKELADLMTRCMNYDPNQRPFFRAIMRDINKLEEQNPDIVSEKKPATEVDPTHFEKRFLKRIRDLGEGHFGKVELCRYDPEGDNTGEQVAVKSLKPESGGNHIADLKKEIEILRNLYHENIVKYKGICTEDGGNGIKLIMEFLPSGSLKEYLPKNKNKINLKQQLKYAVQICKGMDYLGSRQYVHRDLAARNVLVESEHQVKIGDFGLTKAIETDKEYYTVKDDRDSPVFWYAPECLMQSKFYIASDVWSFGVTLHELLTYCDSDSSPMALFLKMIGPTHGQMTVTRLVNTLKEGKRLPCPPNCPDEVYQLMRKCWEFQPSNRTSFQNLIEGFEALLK

T3 sequence (Q9NXH8 whole entry): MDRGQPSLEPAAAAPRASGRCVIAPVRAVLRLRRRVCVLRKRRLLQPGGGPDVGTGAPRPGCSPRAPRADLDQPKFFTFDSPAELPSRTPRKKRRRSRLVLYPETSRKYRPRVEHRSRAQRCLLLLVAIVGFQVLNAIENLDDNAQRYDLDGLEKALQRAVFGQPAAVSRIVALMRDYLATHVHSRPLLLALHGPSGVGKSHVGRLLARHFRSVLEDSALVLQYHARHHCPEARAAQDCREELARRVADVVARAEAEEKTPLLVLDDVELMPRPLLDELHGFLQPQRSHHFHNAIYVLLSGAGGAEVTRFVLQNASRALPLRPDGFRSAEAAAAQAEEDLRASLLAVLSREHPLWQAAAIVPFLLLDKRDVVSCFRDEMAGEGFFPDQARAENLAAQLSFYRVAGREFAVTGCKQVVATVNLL
T1 sequence (P23458 whole entry): as the sequence (P23458 whole entry C810A/C817A) above, with A810C, A817C counted along it
TYK2_C838, sequence (P29597 whole entry): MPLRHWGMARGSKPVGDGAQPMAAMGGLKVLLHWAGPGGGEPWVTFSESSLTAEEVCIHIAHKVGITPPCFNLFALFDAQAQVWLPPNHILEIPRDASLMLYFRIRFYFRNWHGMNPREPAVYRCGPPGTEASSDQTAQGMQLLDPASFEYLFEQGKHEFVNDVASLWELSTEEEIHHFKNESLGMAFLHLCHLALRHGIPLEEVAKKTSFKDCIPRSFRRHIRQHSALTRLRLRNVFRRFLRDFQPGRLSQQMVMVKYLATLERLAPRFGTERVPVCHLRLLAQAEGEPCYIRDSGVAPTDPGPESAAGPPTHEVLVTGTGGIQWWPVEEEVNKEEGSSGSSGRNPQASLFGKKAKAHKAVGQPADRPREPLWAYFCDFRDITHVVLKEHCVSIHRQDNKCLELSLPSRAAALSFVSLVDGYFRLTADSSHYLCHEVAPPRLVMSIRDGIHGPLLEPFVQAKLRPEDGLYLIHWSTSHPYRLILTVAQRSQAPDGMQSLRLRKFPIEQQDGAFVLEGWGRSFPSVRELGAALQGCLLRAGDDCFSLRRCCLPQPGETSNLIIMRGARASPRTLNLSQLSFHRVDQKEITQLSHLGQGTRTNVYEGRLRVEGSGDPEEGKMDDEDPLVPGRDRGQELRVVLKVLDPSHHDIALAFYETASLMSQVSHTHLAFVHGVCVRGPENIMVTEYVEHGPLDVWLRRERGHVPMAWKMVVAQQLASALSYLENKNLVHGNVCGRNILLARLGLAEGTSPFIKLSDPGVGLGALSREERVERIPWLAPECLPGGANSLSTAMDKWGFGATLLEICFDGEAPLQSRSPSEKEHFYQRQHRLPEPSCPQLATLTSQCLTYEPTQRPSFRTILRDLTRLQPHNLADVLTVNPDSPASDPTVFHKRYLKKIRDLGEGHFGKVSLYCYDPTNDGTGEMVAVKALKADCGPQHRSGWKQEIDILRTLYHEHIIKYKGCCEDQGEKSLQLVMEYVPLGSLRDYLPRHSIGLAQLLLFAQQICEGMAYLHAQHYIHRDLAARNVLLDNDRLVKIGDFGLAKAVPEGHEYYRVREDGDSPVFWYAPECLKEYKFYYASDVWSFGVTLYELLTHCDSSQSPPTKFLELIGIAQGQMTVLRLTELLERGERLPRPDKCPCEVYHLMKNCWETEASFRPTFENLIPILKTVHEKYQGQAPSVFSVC
recombinant purified JAK1 (aa 438 – 1154), sequence (P23458 438-1154): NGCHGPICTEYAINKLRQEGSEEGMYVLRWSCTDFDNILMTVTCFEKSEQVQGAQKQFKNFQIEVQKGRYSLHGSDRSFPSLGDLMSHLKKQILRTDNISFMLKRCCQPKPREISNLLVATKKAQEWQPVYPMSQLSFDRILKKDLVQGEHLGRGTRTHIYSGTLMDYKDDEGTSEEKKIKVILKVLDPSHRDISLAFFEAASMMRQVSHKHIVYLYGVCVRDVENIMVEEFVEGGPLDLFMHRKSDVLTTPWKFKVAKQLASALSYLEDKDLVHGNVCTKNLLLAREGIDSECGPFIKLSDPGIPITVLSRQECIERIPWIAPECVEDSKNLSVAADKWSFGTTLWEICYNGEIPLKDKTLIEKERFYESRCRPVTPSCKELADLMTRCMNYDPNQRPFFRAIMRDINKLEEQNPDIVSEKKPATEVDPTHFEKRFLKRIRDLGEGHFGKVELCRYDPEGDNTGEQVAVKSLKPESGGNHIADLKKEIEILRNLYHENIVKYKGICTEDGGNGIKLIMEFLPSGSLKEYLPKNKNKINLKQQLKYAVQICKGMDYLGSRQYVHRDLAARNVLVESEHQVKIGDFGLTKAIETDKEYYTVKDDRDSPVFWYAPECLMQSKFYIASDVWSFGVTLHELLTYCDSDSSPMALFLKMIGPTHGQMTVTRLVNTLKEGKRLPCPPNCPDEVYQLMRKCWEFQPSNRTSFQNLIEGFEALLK
JAK1 phosphorylation (pJAK1; Y1034/Y1035) (Homo sapiens, UniProt P23458), sequence (P23458 whole entry): as the sequence (P23458 whole entry C810A/C817A) above, with A810C, A817C counted along it
C816 of mouse JAK1, sequence (P52332 whole entry): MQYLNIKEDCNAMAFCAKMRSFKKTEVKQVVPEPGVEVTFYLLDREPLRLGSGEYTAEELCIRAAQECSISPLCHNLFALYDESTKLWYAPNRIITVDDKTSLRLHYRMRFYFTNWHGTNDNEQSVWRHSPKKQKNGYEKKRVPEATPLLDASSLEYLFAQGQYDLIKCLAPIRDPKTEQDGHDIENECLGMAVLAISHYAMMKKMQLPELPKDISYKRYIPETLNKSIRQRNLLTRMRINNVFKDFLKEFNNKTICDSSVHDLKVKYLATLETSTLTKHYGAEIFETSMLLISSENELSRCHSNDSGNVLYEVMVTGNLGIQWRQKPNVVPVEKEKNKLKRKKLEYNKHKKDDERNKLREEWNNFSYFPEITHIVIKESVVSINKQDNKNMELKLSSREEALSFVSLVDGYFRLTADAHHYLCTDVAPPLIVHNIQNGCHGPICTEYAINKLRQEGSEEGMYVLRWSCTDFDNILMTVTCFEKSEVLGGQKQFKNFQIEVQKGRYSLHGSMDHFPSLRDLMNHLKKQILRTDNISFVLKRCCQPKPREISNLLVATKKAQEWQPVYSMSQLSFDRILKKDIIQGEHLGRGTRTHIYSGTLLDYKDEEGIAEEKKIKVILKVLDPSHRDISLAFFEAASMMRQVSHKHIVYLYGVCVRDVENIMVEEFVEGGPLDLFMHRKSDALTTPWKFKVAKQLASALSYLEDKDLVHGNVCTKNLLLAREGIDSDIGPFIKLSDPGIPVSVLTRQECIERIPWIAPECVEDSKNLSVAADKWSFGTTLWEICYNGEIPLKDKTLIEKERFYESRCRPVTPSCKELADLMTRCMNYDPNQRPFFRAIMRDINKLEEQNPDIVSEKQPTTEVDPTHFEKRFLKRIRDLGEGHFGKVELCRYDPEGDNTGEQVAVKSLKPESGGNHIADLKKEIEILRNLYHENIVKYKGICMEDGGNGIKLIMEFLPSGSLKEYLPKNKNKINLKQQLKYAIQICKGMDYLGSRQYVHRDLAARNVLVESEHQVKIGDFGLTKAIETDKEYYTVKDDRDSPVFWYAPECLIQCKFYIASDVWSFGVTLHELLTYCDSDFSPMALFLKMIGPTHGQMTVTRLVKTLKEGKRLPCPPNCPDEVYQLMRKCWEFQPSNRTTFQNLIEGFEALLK
JAK1 phosphorylation (pJAK1; Y1034/Y1035) (Homo sapiens, UniProt P23458, C817A), sequence (P23458 whole entry C817A): as the sequence (P23458 whole entry C810A/C817A) above, with A810C counted along it
JAK1 trans-phosphorylation, sequence (P23458 whole entry): as the sequence (P23458 whole entry C810A/C817A) above, with A810C, A817C counted along it
TYK2 phosphorylation (pTYK2), sequence (P29597 whole entry): as the sequence (P29597 whole entry) above

Q: What does the source list for CS(=O)(=O)N1CC[C@H](C#CC(=O)N2CCC[C@@H](c3ccc(Cl)c(Cl)c3)C2)C1 [VVD-118313]?
A: change of TE50 with preincubation time (JAK1_C817 [1]; Jurkat T-cell lysate, 10, 30 and 60 minutes): time-dependent decreases; potency compared with the corresponding diastereomers (5c and 5d) (JAK1_C817 [1]; TE50 and pSTAT pIC50): substantially more potent; %Engagement (JAK1_C817 [2]; 0.01 µM): 84%; Engagement Ratio (DMSO/VVD-118313) (JAK1_C817 [2]; 0.01 µM): 6.3; Engagement Ratio (DMSO/VVD-118313) (JAK1_C817 [2]; 0.1 µM): 20.0; %Engagement (JAK1_C817 [2]; 1 µM): 96%; Engagement Ratio (DMSO/VVD-118313) (JAK1_C817 [2]; 1 µM): 20.0; %Engagement (JAK1_C817 [2]; 10 µM): 97%; Engagement Ratio (DMSO/VVD-118313) (JAK1_C817 [2]; 10 µM): 20.0; Engagement Ratio (DMSO/VVD-118313) (SLC66A3_C135; 0.01 µM): 1.0; %Engagement (SLC66A3_C135; 0.1 µM): 12%; Engagement Ratio (DMSO/VVD-118313) (SLC66A3_C135; 0.1 µM): 1.1; Engagement Ratio (DMSO/VVD-118313) (SLC66A3_C135; 1 µM): 4.4; %Engagement (SLC66A3_C135; 10 µM): 99%; Engagement Ratio (DMSO/VVD-118313) (SLC66A3_C135; 10 µM): 20.0; Engagement Ratio (DMSO/VVD-118313) (TOR4A_C21 [3]; 0.01 µM): 0.9; Engagement Ratio (DMSO/VVD-118313) (TOR4A_C21 [3]; 0.1 µM): 1.0; %Engagement (TOR4A_C21 [3]; 1 µM): 65%; Engagement Ratio (DMSO/VVD-118313) (TOR4A_C21 [3]; 1 µM): 2.9; %Engagement (TOR4A_C21 [3]; 10 µM): 92%; Engagement Ratio (DMSO/VVD-118313) (TOR4A_C21 [3]; 10 µM): 11.8; %Engagement (TOR4A_C21 [4]; 0.01 µM): 9%; Engagement Ratio (DMSO/VVD-118313) (TOR4A_C21 [4]; 0.01 µM): 1.1; %Engagement (TOR4A_C21 [4]; 0.1 µM): 49%; Engagement Ratio (DMSO/VVD-118313) (TOR4A_C21 [4]; 0.1 µM): 1.9; %Engagement (TOR4A_C21 [4]; 1 µM): 90%; Engagement Ratio (DMSO/VVD-118313) (TOR4A_C21 [4]; 1 µM): 10.0; %Engagement (TOR4A_C21 [4]; 10 µM): 97%; Engagement Ratio (DMSO/VVD-118313) (TOR4A_C21 [4]; 10 µM): 20.0; Engagement Ratio (DMSO/VVD-118313) (TYK2_C838; 0.01 µM): 0.9; %Engagement (TYK2_C838; 0.1 µM): 32%; Engagement Ratio (DMSO/VVD-118313) (TYK2_C838; 0.1 µM): 1.5; %Engagement (TYK2_C838; 1 µM): 83%; Engagement Ratio (DMSO/VVD-118313) (TYK2_C838; 1 µM): 5.9; %Engagement (TYK2_C838; 10 µM): 96%; Engagement Ratio (DMSO/VVD-118313) (TYK2_C838; 10 µM): 20.0; engagement of mouse JAK1 C816 (% inhibition) (C816 of mouse JAK1): > 90%; effect on PRL-induced STAT5 phosphorylation [5]: inactive; blockade of JAK1 phosphorylation (maximal activity) ([6]; 0.05 µM): > 90%; effect on constitutive JAK1 phosphorylation ([6]; 2 µM, 2 h): completely blocked; effect on constitutive JAK1 phosphorylation [7]: did not affect; effect on IFNα-induced STAT1 phosphorylation [8]: blocked; effect on phosphorylation of the TYK2 activation loop [9]: inhibited; inhibition of IFNα-stimulated STAT1 phosphorylation [10]: > 85%; inhibition of IL-6-stimulated STAT3 phosphorylation [11]: > 85%; inhibition of IL-2-stimulated STAT5 phosphorylation [12]: ~ 70%; effect on GM-CSF stimulated STAT5 phosphorylation [13]: no effect; also recorded: modest inhibitory effects; effect on IFNα-dependent STAT1 phosphorylation [14]: inhibited; effect on IL-2-dependent STAT5 phosphorylation [15]: inhibited; effect on IL-6-dependent STAT3 phosphorylation ([16]; Tyk2−/− splenocytes): fully blocked; effect on IL-6-stimulated STAT3 phosphorylation ([16]; WT mouse splenocytes): did not inhibit; effect on catalytic activity of recombinant purified JAK1 ([17]; peptide substrate assay): did not inhibit; IC50 ([17]; read-out: IC50, JAK1 substrate assay, 30 min preincubation, IRS-1 peptide, ATP 50 µM, 1 h): > 50 µM; effect on trans-phosphorylation of inactive JAK1-HA variants [18]: completely blocked; blockade of IFNγ-stimulated STAT1 phosphorylation ([19]; K908E-JAK1-expressing 22Rv1 cells): ~ 40%; blockade of IFNγ-stimulated STAT1 phosphorylation ([19]; K908E/C817A-JAK1-expressing 22Rv1 cells): not observed; effect on IFNγ-stimulated STAT1 phosphorylation ([19]; WT-JAK1 transfected 22Rv1 cells, 1 μM, 2 h): Neither VVD-118313 nor the TYK2 inhibitor BMS-986165 altered; CD25+ (% of live cells) ([20]; 0.4 μM, representative flow cytometry plot): 83%; T-cell activation (proportion of CD25+ T-cells) ([20]; αCD3/αCD28 co-stimulation): partially inhibited; early-stage activation marker CD69 ([20]; αCD3/αCD28 co-stimulation): Neither compound affected; production of IL-2 [21]: slightly increased; secretion of IFNγ [21]: partially blocked; T-cell viability (primary human T cells): Neither compound affected; induction of interferon-stimulated genes (OAS1, MX1, IFIT1, CCL2) [22]: blocked the induction; competition of probe 6 labeling of WT-JAK1 [23]: blocked in a concentration-dependent manner
